Results as given in patent publication US8846928B2 (Portola Pharmaceuticals, Inc., priority 2010, dated 2014).
pIC50: −log10 of the molar value. Several values for one entry are separate records, joined by “and”; a condition that tells them apart may be missing. Equal entries are not always repeated.

target: T1, full length active recombinant SYK enzyme (Homo sapiens, UniProt P43405); assay: Inhibition of Syk tyrosine phosphorylation activity (LANCE TR-FRET kinase assay); type: biochemical
T1 construct: full length active recombinant SYK enzyme (Millipore, Calif.); purchased Millipore

Row | Structure (SMILES) | pIC50
1 | CC(C)C[C@@H](Nc1nc(Nc2ccc3ncccc3c2)c(C(N)=O)cc1F)C(N)=O [Example 248, (R)-6-(1-amino-4-methyl-1-oxopentan-2-ylamino)-5-fluoro-2-(quinolin-6-ylamino)nicotinamide] | 8.00 to 9.00
2 | CC(C)C[C@@H](Nc1nc(Nc2ccc3c(ccn3C)c2)c(C(N)=O)cc1F)C(N)=O [Example 249, (R)-6-(1-amino-4-methyl-1-oxopentan-2-ylamino)-5-fluoro-2-(1-methyl-1H-indol-5-ylamino)nicotinamide] | 7.00 to 8.00
3 | NC(=O)c1cc(F)c(N[C@H](CC2CC2)C(N)=O)nc1Nc1ccc2cccnc2c1 [Example 250, (R)-6-(1-amino-3-cyclopropyl-1-oxopropan-2-ylamino)-5-fluoro-2-(quinolin-7-ylamino)nicotinamide] | 7.00 to 8.00
4 | NC(=O)c1cc(F)c(N[C@H](CC2CC2)C(N)=O)nc1Nc1cnc2ccccc2c1 [Example 251, (R)-6-(1-amino-3-cyclopropyl-1-oxopropan-2-ylamino)-5-fluoro-2-(quinolin-3-ylamino)nicotinamide] | 8.00 to 9.00
5 | NC(=O)c1cc(F)c(N[C@H](CC2CC2)C(N)=O)nc1Nc1ccc2ncccc2c1 [Example 252, (R)-6-(1-amino-3-cyclopropyl-1-oxopropan-2-ylamino)-5-fluoro-2-(quinolin-6-ylamino)nicotinamide] | 8.00 to 9.00
6 | Cc1cc(Nc2nc(N[C@H](CC3CC3)C(N)=O)c(F)cc2C(N)=O)sn1 [Example 253, (R)-6-(1-amino-3-cyclopropyl-1-oxopropan-2-ylamino)-5-fluoro-2-(3-methylisothiazol-5-ylamino)nicotinamide] | 7.00 to 8.00
7 | NC(=O)c1ccc(N[C@@H]2CCCC[C@@H]2N)nc1Nc1ccc2c(c1)OCCO2 [Example 254, 6-((1R,2S)-2-aminocyclohexylamino)-2-(2,3-dihydrobenzo[b][1,4]dioxin-6-ylamino)nicotinamide] | 8.00 to 9.00
8 | NC(=O)c1ccc(N[C@@H]2CCCC[C@@H]2N)nc1Nc1ccc2c(c1)OCO2 [Example 255] | 8.00 to 9.00 and 7.00 to 8.00
9 | Cc1cncc(Nc2nc(N[C@@H]3CCCC[C@@H]3N)ccc2C(N)=O)c1 [Example 256] | 8.00 to 9.00
10 | C[C@H](N)CNc1nc(Nc2cccc(-n3nccn3)c2)c(C(N)=O)cc1F [Example 257, (S)-2-(3-(2H-1,2,3-triazol-2-yl)phenylamino)-6-(2-aminopropylamino)-5-fluoronicotinamide] | 8.00 to 9.00
11 | C[C@H](N)CNc1nc(Nc2cccc(-c3ncccn3)c2)c(C(N)=O)cc1F [Example 258, (S)-2-(3-(pyrimidin-2-yl)phenylamino)-6-(2-aminopropylamino)-5-fluoronicotinamide] | 7.00 to 8.00
12 | C[C@H](N)CNc1nc(Nc2cccc(-n3cccn3)c2)c(C(N)=O)cc1F [Example 259, (S)-2-(3-(1H-pyrazol-1-yl)phenylamino)-6-(2-aminopropylamino)-5-fluoronicotinamide] | 8.00 to 9.00
13 | Cc1cncc(Nc2nc(NC[C@H](C)N)c(F)cc2C(N)=O)c1 [Example 260, (S)-2-(5-methylpyridin-3-ylamino)-6-(2-aminopropylamino)-5-fluoronicotinamide] | 7.00 to 8.00
14 | C[C@H](N)CNc1nc(Nc2cncc(F)c2)c(C(N)=O)cc1F [Example 261, (S)-2-(5-fluoropyridin-3-ylamino)-6-(2-aminopropylamino)-5-fluoronicotinamide] | 6.00 to 7.00
15 | CC[C@@H](Nc1nc(Nc2cccc(OC(F)(F)F)c2)c(C(N)=O)cc1F)C(N)=O [Example 263, (R)-6-(1-amino-1-oxobutan-2-ylamino)-5-fluoro-2-(3-(trifluoromethoxy)phenylamino)nicotinamide] | 6.00 to 7.00
16 | CC[C@@H](Nc1nc(Nc2cccc(OC(F)F)c2)c(C(N)=O)cc1F)C(N)=O [Example 264, (R)-6-(1-amino-1-oxobutan-2-ylamino)-5-fluoro-2-(3-(difluoromethoxy)phenylamino)nicotinamide] | 6.00 to 7.00
17 | CC(C)C[C@@H](Nc1nc(Nc2cccc(Cl)c2)c(C(N)=O)cc1F)C(N)=O [Example 265, (R)-6-(1-amino-4-methyl-1-oxopentan-2-ylamino)-5-fluoro-2-(3-chlorophenylamino)nicotinamide] | 7.00 to 8.00

More lines, now with the values ahead:

Row | pIC50 | Structure (SMILES)
18 | 7.00 to 8.00 | CC(C)C[C@@H](Nc1nc(Nc2ccc(F)c(Cl)c2)c(C(N)=O)cc1F)C(N)=O [Example 266, (R)-6-(1-amino-4-methyl-1-oxopentan-2-ylamino)-5-fluoro-2-(3-chloro-4-fluorophenylamino)nicotinamide]
19 | 7.00 to 8.00 | NC(=O)c1cc(F)c(N[C@@H]2CCOC[C@@H]2N)nc1Nc1cnc2ccccc2c1 [Example 275, 6-((3R,4R)-3-aminotetrahydro-2H-pyran-4-ylamino)-5-fluoro-2-(quinolin-3-ylamino)nicotinamide]
20 | 8.00 to 9.00 | NC(=O)c1ccc(N[C@@H]2CCOC[C@@H]2N)nc1Nc1ccc2ncccc2c1 [Example 276, 6-((3R,4R)-3-aminotetrahydro-2H-pyran-4-ylamino)-2-(quinolin-6-ylamino)nicotinamide]
21 | 8.00 to 9.00 | NC(=O)c1cc(F)c(N[C@@H]2CCOC[C@@H]2N)nc1Nc1cccc(-n2nccn2)c1 [Example 279, 2-(3-(2H-1,2,3-triazol-2-yl)phenylamino)-6-((3R,4R)-3-aminotetrahydro-2H-pyran-4-ylamino)-5-fluoronicotinamide]
22 | 6.00 to 7.00 | NC(=O)c1cc(F)c(N[C@@H]2CCCC(F)(F)[C@@H]2N)nc1Nc1cnc2ccccc2c1 [Example 289, 6-((1R,2R)-2-amino-3,3-difluorocyclohexylamino)-5-fluoro-2-(quinolin-3-ylamino)nicotinamide]
23 | 7.00 to 8.00 | NC(=O)c1cc(F)c(N[C@@H]2CCCC(F)(F)[C@@H]2N)nc1Nc1ccc2ncccc2c1 [Example 291, 6-((1R,2R)-2-amino-3,3-difluorocyclohexylamino)-5-fluoro-2-(quinolin-6-ylamino)nicotinamide]
24 | 6.00 to 7.00 | NC(=O)c1cc(F)c(N[C@@H]2CCCC(F)(F)[C@@H]2N)nc1Nc1cccc(-n2nccn2)c1 [Example 293]
25 | 7.00 to 8.00 | CC(C)[C@@H](Nc1nc(Nc2cnc3ccccc3c2)c(C(N)=O)cc1F)C(N)=O [Example 300, (R)-6-(1-amino-3-methyl-1-oxobutan-2-ylamino)-5-fluoro-2-(quinolin-3-ylamino)nicotinamide]
26 | 7.00 to 8.00 | NC(=O)c1cc(F)c(N[C@H](CC(F)(F)F)C(N)=O)nc1Nc1cnc2ccccc2c1 [Example 301, (R)-6-(1-amino-4,4,4-trifluoro-1-oxobutan-2-ylamino)-5-fluoro-2-(quinolin-3-ylamino)nicotinamide]
27 | 7.00 to 8.00 | C[C@@H](Nc1nc(Nc2ccc3ncccc3c2)c(C(N)=O)cc1F)C(N)=O [Example 302, (R)-6-(1-amino-1-oxopropan-2-ylamino)-5-fluoro-2-(quinolin-6-ylamino)nicotinamide]
28 | 6.00 to 7.00 | CC[C@@H](Nc1nc(Nc2ccc(C3CC[N+](C)([O-])CC3)cc2)c(C(N)=O)cc1F)C(N)=O (stereo partly drawn) [Example 308, (R)-4-(4-(6-(1-amino-1-oxobutan-2-ylamino)-3-carbamoyl-5-fluoropyridin-2-ylamino)phenyl)-1-methylpiperidine 1-oxide]
29 | 7.00 to 8.00 | CN1CCC(c2ccc(Nc3nc(N[C@@H]4CCCC[C@@H]4N)c(F)cc3C(N)=O)cc2)CC1 [Example 309, 6-((1R,2S)-2-aminocyclohexylamino)-5-fluoro-2-(4-(1-methylpiperidin-4-yl)phenylamino)nicotinamide]
30 | 8.00 to 9.00 | NC(=O)c1cc(F)c(N[C@@H]2CCCC[C@@H]2N)nc1Nc1ccc2scnc2c1 [Example 310]
31 | 8.00 to 9.00 | NC(=O)c1cc(F)c(N[C@@H]2CCCC[C@@H]2N)nc1Nc1ccccc1 [Example 312, 6-((1R,2S)-2-aminocyclohexylamino)-5-fluoro-2-(phenylamino)nicotinamide]
32 | 7.00 to 8.00 | Cc1ccccc1Nc1nc(N[C@@H]2CCCC[C@@H]2N)c(F)cc1C(N)=O [Example 313, 6-((1R,2S)-2-aminocyclohexylamino)-5-fluoro-2-(o-tolylamino)nicotinamide]
33 | 8.00 to 9.00 | Cc1cccc(Nc2nc(N[C@@H]3CCCC[C@@H]3N)c(F)cc2C(N)=O)c1 [Example 314, 6-((1R,2S)-2-aminocyclohexylamino)-5-fluoro-2-(m-tolylamino)nicotinamide]
34 | 8.00 to 9.00 | Cc1ccc(Nc2nc(N[C@@H]3CCCC[C@@H]3N)c(F)cc2C(N)=O)cc1 [Example 315, 6-((1R,2S)-2-aminocyclohexylamino)-5-fluoro-2-(p-tolylamino)nicotinamide]
35 | 8.00 to 9.00 | NC(=O)c1cc(F)c(N[C@@H]2CCCC[C@@H]2N)nc1Nc1cccc(F)c1 [Example 316, 6-((1R,2S)-2-aminocyclohexylamino)-5-fluoro-2-(3-fluorophenylamino)nicotinamide]
36 | 8.00 to 9.00 | NC(=O)c1cc(F)c(N[C@@H]2CCCC[C@@H]2N)nc1Nc1cccc(Cl)c1 [Example 317, 6-((1R,2S)-2-aminocyclohexylamino)-2-(3-chlorophenylamino)-5-fluoronicotinamide]
37 | 7.00 to 8.00 | NC(=O)c1cc(F)c(N[C@@H]2CCCC[C@@H]2N)nc1Nc1ccc(Cl)cc1 [Example 318, 6-((1R,2S)-2-aminocyclohexylamino)-2-(4-chlorophenylamino)-5-fluoronicotinamide]
38 | 7.00 to 8.00 | Cc1cccc(Nc2nc(N[C@@H]3CCCC[C@@H]3N)c(F)cc2C(N)=O)c1C [Example 319, 6-((1R,2S)-2-aminocyclohexylamino)-2-(2,3-dimethylphenylamino)-5-fluoronicotinamide]
39 | 8.00 to 9.00 | Cc1cc(C)cc(Nc2nc(N[C@@H]3CCCC[C@@H]3N)c(F)cc2C(N)=O)c1 [Example 320, 6-((1R,2S)-2-aminocyclohexylamino)-2-(3,5-dimethylphenylamino)-5-fluoronicotinamide]
40 | > 9.00 | Cc1cc(F)cc(Nc2nc(N[C@@H]3CCCC[C@@H]3N)c(F)cc2C(N)=O)c1 [Example 321, 6-((1R,2S)-2-aminocyclohexylamino)-5-fluoro-2-(3-fluoro-5-methylphenylamino)nicotinamide]
